Data as given in ChEMBL document CHEMBL6177994 (J Med Chem, 2025).
Calls of active or inactive are those of the source. The rule behind the calls is not given here.

Legend:
[1] = system: Protein cereblon/GTPase KRas (Homo sapiens), P01116+Q96SW2 [G12D]; test: PROTAC activity at CRBN/KRAS G12D mutant in human ASPC1 cells assessed as induction of KRAS G12D mutant degradation at 5 nM measured after 24 hrs by immunoblot analysis relative to control; type: cell-based
AGS = test: PROTAC activity at CRBN/KRAS G12D mutant in human AGS cells assessed as induction of KRAS G12D mutant degradation 0.01 to 100 nM measured after 24 hrs by immunoblot analysis; type: cell-based; settings: dose 0.01-100 nM
[2] = Inhibition of ERK phosphorylation in human AGS cells harbouring KRAS G12D mutant measured after 24 hrs; type: cell-based
[3] = molecular target: Protein cereblon/GTPase HRas (Homo sapiens) (UniProt P01112+Q96SW2); test: PROTAC activity at CRBN/HRAS in human MKN-1 cells assessed as […] degradation 0.061 to 1000 nM measured after 24 hrs by immunoblot analysis; type: cell-based; settings: dose 0.061-1000 nM
[4] = molecular target: Protein cereblon/Eukaryotic peptide chain release factor GTP-binding subunit ERF3A (Homo sapiens) (UniProt Q96SW2+P15170); test: PROTAC activity at CRBN/GSPT1 in human ASPC1 cells assessed as induction of GSPT1 degradation at 10 to 1000 nM measured after 24 hrs by immunoblot analysis; type: cell-based; settings: dose 10-1000 nM
NCI-H358 = test: Antiproliferative activity against human NCI-H358 cells harbouring KRAS G12C mutant assessed as inhibition of cell growth measured after 72 hrs by Cell titer glo method; type: functional, cell-based
SK-LU-1 = test: Antiproliferative activity against human SK-LU-1 cells harbouring KRAS G12D mutant assessed as inhibition of cell growth measured after 72 hrs by Cell titer glo method; type: functional, cell-based
[5] = system: Protein cereblon/GTPase KRas (Homo sapiens), P01116+Q96SW2 [G12D]; test: PROTAC activity at CRBN/KRAS G12D mutant in human ASPC1 cells assessed as induction of KRAS G12D mutant degradation at 5 nM preincubated with CRBN ligand followed by compound addition and measured after 24 hrs by Western blot analysis; type: cell-based
[6] = Antitumor activity against human GP2d cells xenografted in female Balb/c nude mouse model assessed as tumor growth inhibition at 10 mg/kg, iv QW administered weekly and measured after 28 days relative to control; type: functional; settings: 672 h, time 28 day, read-out: TGI
ASPC1 = test: Antitumor activity against human ASPC1 cells harbouring KRAS G12D mutant xenografted in female Balb/c nude mouse model assessed as tumor regression at 1 to 20 mg/kg, iv QW administered weekly and measured after 28 days; type: functional, organism-based; settings: dose 1-20 mg/kg, time 28.0 day
[7] = system: Protein cereblon/GTPase KRas (Homo sapiens), P01116+Q96SW2 [G12D]; test: In vivo PROTAC activity at CRBN/KRAS G12D mutant in male Balb/c nude mouse xenografted with human PK-59 cells assessed as reduction in DUSP4 level in tumor at 10 mg/kg, iv measured after 6 hrs relative to control; type: functional, organism-based; design: scale not given: the % may be the effect or the level left
[8] = system: Protein cereblon/GTPase KRas (Homo sapiens), P01116+Q96SW2 [G12D]; test: In vivo PROTAC activity at CRBN/KRAS G12D mutant in male Balb/c nude mouse xenografted with human PK-59 cells assessed as increase in cleaved caspase 7 level at 10 mg/kg, iv measured up to 168 hrs; type: functional, organism-based
[9] = system: Protein cereblon/GTPase KRas (Homo sapiens), P01116+Q96SW2 [G12D]; test: In vivo PROTAC activity at CRBN/KRAS G12D mutant in male Balb/c nude mouse xenografted with human GP2d cells assessed as degradation of KRAS G12D mutant at 10 mg/kg, iv measured after 7 days relative to control; type: functional, organism-based; settings: time 7.0 day
[10] = system: Protein cereblon/GTPase KRas (Homo sapiens), P01116+Q96SW2 [G12D]; test: In vivo PROTAC activity at CRBN/KRAS G12D mutant in male Balb/c nude mouse xenografted with human GP2d cells assessed as increase in cleaved caspase 7 level at 10 mg/kg, iv measured after 7 days; type: functional, organism-based; settings: time 7.0 day
[11] = Stability in rat plasma assessed as half life at 1 uM measured up to 120 mins by LC-MS/MS analysis; type: ADME, cell-free
[12] = Stability in dog plasma assessed as half life at 1 uM measured up to 120 mins by LC-MS/MS analysis; type: ADME, cell-free, Canis lupus familiaris
[13] = Stability in human plasma assessed as half life at 1 uM measured up to 120 mins by LC-MS/MS analysis; type: ADME, cell-free
[14] = Metabolic stability in human liver microsomes assessed as intrinsic clearance at 1 uM preincubated for 3 mins with NADPH and measured up to 60 mins by LC-MS/MS analysis; type: ADME, Microsome; settings: time < 63 min, read-out: CLH
[15] = Stability in human hepatocyte assessed as intrinsic clearance at 100 uM measured up to 120 mins by LC-MS/MS analysis; type: ADME, cell-based; settings: hepatocytes, read-out: CLH
[16] = Plasma protein binding in rat at 2 uM by LC-MS/MS analysis; type: ADME, cell-free; settings: read-out: PPB
[17] = Plasma protein binding in dog at 2 uM by LC-MS/MS analysis; type: ADME, cell-free, Canis lupus familiaris; settings: read-out: PPB
[18] = Plasma protein binding in human at 2 uM by LC-MS/MS analysis; type: ADME, cell-free; settings: read-out: PPB
[19] = AUC (0 to t) in male ICR mouse at 1 mg/kg, iv measured up to 24 hrs by LC-MS/MS analysis; type: ADME, organism-based; settings: in vivo
[20] = Clearance in male ICR mouse at 1 mg/kg, iv measured up to 24 hrs by LC-MS/MS analysis; type: ADME, organism-based; settings: in vivo
[21] = Half life in male Sprague-Dawley rat at 1 mg/kg, iv measured up to 24 hrs by LC-MS/MS analysis; type: ADME, organism-based; settings: in vivo
[22] = AUC (0 to t) in male Sprague-Dawley rat at 1 mg/kg, iv measured up to 24 hrs by LC-MS/MS analysis; type: ADME, organism-based; settings: in vivo
[23] = Volume of distribution at steady state in male Sprague-Dawley rat at 1 mg/kg, iv measured up to 24 hrs by LC-MS/MS analysis; type: ADME, organism-based; settings: in vivo, read-out: Vdss
[24] = AUC (0 to t) in male Beagle dog at 1 mg/kg, iv measured up to 24 hrs by LC-MS/MS analysis; type: ADME, organism-based, Canis lupus familiaris; settings: in vivo
[25] = Volume of distribution at steady state in male Beagle dog at 1 mg/kg, iv measured up to 24 hrs by LC-MS/MS analysis; type: ADME, organism-based, Canis lupus familiaris; settings: in vivo, read-out: Vdss
[26] = Clearance in male Beagle dog at 1 mg/kg, iv measured up to 24 hrs by LC-MS/MS analysis; type: ADME, organism-based, Canis lupus familiaris; settings: in vivo
[27] = Volume of distribution at steady state in male cynomolgus monkey at 1 mg/kg, iv measured up to 24 hrs by LC-MS/MS analysis; type: ADME, organism-based, Macaca fascicularis; settings: in vivo, read-out: Vdss
[28] = Half life in male ICR mouse plasma at 10 mg/kg, iv measured after 72 hrs by LC-MS/MS analysis; type: ADME, organism-based
[29] = Elimination half life in male ICR mouse colon at 10 mg/kg, iv measured up to 336 hrs by LC-MS/MS analysis; type: ADME, organism-based; settings: read-out: beta t1/2 (converted)

Protein cereblon/GTPase KRas (Homo sapiens), P01116+Q96SW2 [G12D], sequence (P01116 whole entry G12D): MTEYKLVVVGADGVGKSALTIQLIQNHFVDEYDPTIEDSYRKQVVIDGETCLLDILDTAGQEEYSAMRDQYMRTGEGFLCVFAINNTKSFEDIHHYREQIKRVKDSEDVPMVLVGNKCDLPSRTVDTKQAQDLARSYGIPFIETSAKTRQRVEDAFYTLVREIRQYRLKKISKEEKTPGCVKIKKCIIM
Protein cereblon/GTPase KRas (Homo sapiens), P01116+Q96SW2 [G12D], sequence (Q96SW2 whole entry partner): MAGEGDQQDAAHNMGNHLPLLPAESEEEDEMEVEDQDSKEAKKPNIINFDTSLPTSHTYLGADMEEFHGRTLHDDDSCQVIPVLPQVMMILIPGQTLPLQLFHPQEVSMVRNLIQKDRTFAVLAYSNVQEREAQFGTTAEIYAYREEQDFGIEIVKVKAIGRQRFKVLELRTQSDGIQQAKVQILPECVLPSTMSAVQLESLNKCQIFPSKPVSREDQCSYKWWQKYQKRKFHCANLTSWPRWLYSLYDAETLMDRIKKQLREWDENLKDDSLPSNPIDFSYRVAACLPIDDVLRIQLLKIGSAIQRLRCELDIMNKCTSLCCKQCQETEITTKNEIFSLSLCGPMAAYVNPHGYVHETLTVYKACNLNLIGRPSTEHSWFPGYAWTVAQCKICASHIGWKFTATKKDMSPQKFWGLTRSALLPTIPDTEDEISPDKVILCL
Protein cereblon/GTPase HRas (Homo sapiens), sequence (P01112 whole entry, looked up): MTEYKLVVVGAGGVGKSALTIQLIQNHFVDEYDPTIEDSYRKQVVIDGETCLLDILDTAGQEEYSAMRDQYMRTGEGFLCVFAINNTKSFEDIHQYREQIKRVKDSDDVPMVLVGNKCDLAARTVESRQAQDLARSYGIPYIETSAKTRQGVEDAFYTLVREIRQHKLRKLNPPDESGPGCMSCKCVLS
Protein cereblon/GTPase HRas (Homo sapiens), sequence (Q96SW2 whole entry, looked up): as the sequence (Q96SW2 whole entry partner) above
Protein cereblon/Eukaryotic peptide chain release factor GTP-binding subunit ERF3A (Homo sapiens), sequence (P15170 whole entry, looked up): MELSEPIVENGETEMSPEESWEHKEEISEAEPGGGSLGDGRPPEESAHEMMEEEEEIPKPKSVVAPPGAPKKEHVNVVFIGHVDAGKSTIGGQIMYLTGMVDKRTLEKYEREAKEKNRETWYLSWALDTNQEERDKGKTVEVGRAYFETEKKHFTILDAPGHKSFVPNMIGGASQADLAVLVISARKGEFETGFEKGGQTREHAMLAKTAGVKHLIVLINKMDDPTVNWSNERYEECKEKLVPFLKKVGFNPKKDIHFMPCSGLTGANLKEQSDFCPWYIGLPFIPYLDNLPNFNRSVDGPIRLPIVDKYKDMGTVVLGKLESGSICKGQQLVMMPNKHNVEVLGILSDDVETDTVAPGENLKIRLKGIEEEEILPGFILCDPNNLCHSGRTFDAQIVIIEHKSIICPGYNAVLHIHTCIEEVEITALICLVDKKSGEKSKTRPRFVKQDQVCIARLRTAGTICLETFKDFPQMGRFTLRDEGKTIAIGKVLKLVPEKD
Protein cereblon/Eukaryotic peptide chain release factor GTP-binding subunit ERF3A (Homo sapiens), sequence (Q96SW2 whole entry, looked up): as the sequence (Q96SW2 whole entry partner) above

With `C#Cc1c(F)ccc2cc(O)cc(-c3ncc4c(N5CC6CCC(C5)N6)nc(OCC5(CN6CCC7(CC6)CC(N6CCC(c8cc9c(cc8F)c(N8CCC(=O)NC8=O)nn9C)CC6)C7)CC5)nc4c3F)c12` the Activity [1] was 92%, the Activity (AGS) was “Active” and the IC50 [2] was 10.6 nM. The Activity [3] was “inactive”, the Activity [4] was “inactive” and the Activity (NCI-H358) was “Weak_effect; Compound Showed Weaker Potency In Antiproliferative Activity Compared To Mrtx1133”. The Activity (SK-LU-1) was “Active; Compound Showed Stronger Antiproliferative Activity Compared To Mrtx1133”, the Activity [5] was “Active” and the inhibition in vivo at 10 mg/kg [6] was 30.9%. For the same molecule, the Activity (ASPC1) was “Weak_effect”, the Activity [7] was 11% and the Activity [8] was “Active”. The Activity [9] was 95%, the Activity [10] was “Active” and the half-life at 1 µM [11] was 12.8 h. For the same molecule, the half-life at 1 µM [12] was 7.22 h, the half-life at 1 µM [13] was 165 h and the CLint scaled at 1 µM [14] was 8.1 mL/min/kg. For the same molecule, the CLint scaled at 100 µM [15] was 5.8 mL/min/kg, the fraction unbound at 2 µM [16] was < 0.05 and the fraction unbound at 2 µM [17] was < 0.05. For the same molecule, the fraction unbound at 2 µM [18] was < 0.05, the AUC(0-t) at 24 h [19] was 0.397 µM·h and the clearance [20] was 39 mL/min/kg. It also gave a half-life [21] of 9.63 h, an AUC(0-t) at 24 h [22] of 0.531 µM·h and a Vd [23] of 10.3 L/kg. For the same molecule, the AUC(0-t) at 24 h [24] was 0.458 µM·h, the Vd [25] was 16 L/kg and the clearance [26] was 33 mL/min/kg. It also gave a Vd [27] of 12.7 L/kg, a half-life [28] of 15.1 h and a half-life [29] of 94.6 h.
